Each structure is given as a SMILES string.

The target in this test is T1, recombinant human liver GK (Homo sapiens, UniProt P35557).
T1 construct: made in house; host or cells: E. coli
T1 sequence (P35557 1-466 isoform P35557-2): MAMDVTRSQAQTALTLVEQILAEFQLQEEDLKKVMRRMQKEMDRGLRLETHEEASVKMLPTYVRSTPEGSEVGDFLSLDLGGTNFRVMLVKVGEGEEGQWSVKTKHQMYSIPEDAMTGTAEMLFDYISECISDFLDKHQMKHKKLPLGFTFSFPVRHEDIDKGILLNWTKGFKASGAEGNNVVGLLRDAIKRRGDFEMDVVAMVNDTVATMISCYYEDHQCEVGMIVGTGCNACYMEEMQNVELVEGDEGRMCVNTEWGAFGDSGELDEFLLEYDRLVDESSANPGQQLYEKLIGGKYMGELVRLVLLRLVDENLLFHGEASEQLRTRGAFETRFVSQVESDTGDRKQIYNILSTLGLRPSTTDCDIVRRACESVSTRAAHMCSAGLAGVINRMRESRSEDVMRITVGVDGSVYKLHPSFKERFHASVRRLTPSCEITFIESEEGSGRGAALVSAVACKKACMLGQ
The experiment in a line: glucokinase activation assay (Thio-NADH, G6PDH-coupled). Type of test: biochemical. As to conditions: final glucose concentration 2.5 mM; 30° C. The source says: The excellent glucokinase-activating effect of the compounds of formula (I) may be determined by a method described in literature (e.g., Diabetes, Vol. 45, pp. 1671-1677, 1996), or in accordance with it.
The glucokinase activity may be determined not by directly measuring glucose-6-phosphate but by measuring the level of Thio-NADH, which is produced when a reporter enzyme, glucose-6-phosphate dehydrogenase produces phosphogluconolactone from glucose-6-phosphate, and based on that level, the level of glucokinase activation may be determined.
In this assay, used was a recombinant human liver GK, which was expressed by E. coli as a FLAG fusion protein therein and was purified by ANTIFLAG M2 AFFINITY GEL (Sigma).
Using a flat-bottomed 96-well plate, the assay was carried out at 30° C. 69 μl of an assay buffer (25 mM Hepes Buffer, pH=7.2, 2 mM MgCl2, 1 mM ATP, 0.5 mM TNAD, 1 mM dithiothreitol) was put into the plate, and 1 μl of a DMSO solution of the compound or DMSO alone as a control was added thereto. Next, 20 μl of an enzyme mixture (FLAG-GK, 20 U/ml G6PDH) cooled in ice was added to it, and 10 μl of a substrate, 25 mM glucose was added to it, and the reaction was initiated (final glucose concentration=2.5 mM).
After the start of the reaction, the increase in the absorbance at 405 nm was measured for 12 minutes at intervals of 30 seconds, and the increase for the first 5 minutes was used for evaluating the compound tested. FLAG-GK was added so that the absorbance increase after 5 minutes in the presence of 1% DMSO could be from 0.04 to 0.06.
The OD level of the DMSO control was set as 100%; and the OD level of the test compound at different concentrations was determined. From the OD level at each concentration, Emax (%) and EC50 (μM) were computed and used as the index of the GK-activating potency of the compound.
For `CCS(=O)(=O)c1ccc(Oc2cc3cc(-c4ccccn4)[nH]c3cc2Oc2cccnc2OC(F)F)cn1` [Example 2, 6-([2-(Difluoromethoxy)pyridin-3-yl]oxy)-5-([6-(ethylsulfonyl)pyridin-3-yl]oxy)-2-pyridin-2-yl-1H-indole], the EC50 was determined as 180 nM.

Turning to `CS(=O)(=O)c1ccc(Oc2cc3cc(-c4ccccn4)[nH]c3cc2CN2CCCC2=O)cn1` [Example 3, 1-[(5-([6-(Methylsulfonyl)pyridin-3-yl]oxy)-2-pyridin-2-yl-1H-indol-6-yl)methyl]p-pyrrolidin-2-one], the EC50 is 70 nM.

Consider `Cc1nc(-c2ccc(Oc3cc4cc(-c5ccccn5)[nH]c4cc3CN3CCCC3=O)cn2)no1` [Example 6, 1-[(5-([6-(5-Methyl-1,2,4-oxadiazol-3-yl)pyridin-3-yl]oxy)-2-pyridin-2-yl-1H-indol-6-yl)methyl]pyrrolidin-2-one], for which the EC50 is 50 nM.

For the origin of these results see patent US7799820B2, “2-Heterocycle-substituted indole derivatives for treating diabetes and associated conditions” (Banyu Pharmaceutical Co., Ltd., priority 2005, dated 2010).
